Test results reported in US10583074B2, “Oral care compositions” (priority 2017, dated 2020).
Converted amounts (≈) assume the structure as drawn. Where two headings read alike, the source gives them in different places.

Key:
Assay in all cases: Minimum inhibitory concentration
Type in all cases: cell-based
[1] = test system: Actinomyces viscosus ATCC 43137
Description: (§1) That is, the amount in parts-per-million (ppm) required to inhibit the growth of common bacterial pathogens.

[2] = test system: Lactobacillus casei ATCC 334; conditions: Lacticaseibacillus casei
Description: as §1

[3] = test system: Streptococcus oralis ATCC 35037
Description: as §1

[4] = ATCC43137, Actinomyces viscosus ATCC 43137, solvent ethanol or DMSO per sample, read-out: minimum inhibitory concentration
[5] = ATCC334, Lactobacillus casei ATCC 334, solvent ethanol or DMSO per sample, read-out: minimum inhibitory concentration
[6] = ATCC35037, Streptococcus oralis ATCC 35037, solvent ethanol or DMSO per sample, read-out: minimum inhibitory concentration

SMILES | MIC [1, 4] | MIC [2, 5] | MIC [3, 6] | MIC ([1]; Actinomyces viscosus, ATCC43137, read-out: minimum inhibitory concentration) | MIC ([2]; ATCC334, read-out: minimum inhibitory concentration) | MIC ([3]; Streptococcus oralis, ATCC35037, read-out: minimum inhibitory concentration)
C=CCc1ccc(O)c(OC)c1 [Eugenol, 4-allyl-2-methoxyphenol] | 250 mg/L (≈ 1520 µM) | 250 mg/L (≈ 1520 µM) | 250 mg/L (≈ 1520 µM) | – | – | –
CC1(C)CC[C@]2(C(=O)O)CC[C@]3(C)C(=CC[C@@H]4[C@@]5(C)CC[C@H](O)C(C)(C)[C@@H]5CC[C@]43C)[C@@H]2C1 [Oleanic Acid, 3β-hydroxy-olea-12-en-28-oic] | 15.6 mg/L (≈ 34.2 µM) | 7.8 mg/L (≈ 17.1 µM) | 7.8 mg/L (≈ 17.1 µM) | – | – | –
Oc1cc(Cl)ccc1Oc1ccc(Cl)cc1Cl [Triclosan] | – | – | – | 3.9 mg/L (≈ 13.5 µM) | 7.8 mg/L (≈ 26.9 µM) | 7.8 mg/L (≈ 26.9 µM)
